# Results as given in ChEMBL document CHEMBL2074173, “Organic anion-transporting polypeptide B (OATP-B) and its functional comparison with three other OATPs of human liver” (Gastroenterology, 2001).
# Where a SMILES comes first, the peptide text is derived from it. [ ]: non-standard residue; d: D form.
# B1: Solute carrier organic anion transporter family member 1B1 (Homo sapiens) (protein)
# chain: MDQNQHLNKTAEAQPSENKKTRYCNGLKMFLAALSLSFIAKTLGAIIMKSSIIHIERRFEISSSLVGFIDGSFEIGNLLVIVFVSYFGSKLHRPKLIGIGCFIMGIGGVLTALPHFFMGYYRYSKETNINSSENSTSTLSTCLINQILSLNRASPEIVGKGCLKESGSYMWIYVFMGNMLRGIGETPIVPLGLSYIDDFAKEGHSSLYLGILNAIAMIGPIIGFTLGSLFSKMYVDIGYVDLSTIRITPTDSRWVGAWWLNFLVSGLFSIISSIPFFFLPQTPNKPQKERKASLSLHVLETNDEKDQTANLTNQGKNITKNVTGFFQSFKSILTNPLYVMFVLLTLLQVSSYIGAFTYVFKYVEQQYGQPSSKANILLGVITIPIFASGMFLGGYIIKKFKLNTVGIAKFSCFTAVMSLSFYLLYFFILCENKSVAGLTMTYDGNNPVTSHRDVPLSYCNSDCNCDESQWEPVCGNNGITYISPCLAGCKSSSGNKKPIVFYNCSCLEVTGLQNRNYSAHLGECPRDDACTRKFYFFVAIQVLNLFFSALGGTSHVMLIVKIVQPELKSLALGFHSMVIRALGGILAPIYFGALIDTTCIKWSTNNCGTRGSCRTYNSTSFSRVYLGLSSMLRVSSLVLYIILIYAMKKKYQEKDINASENGSVMDEANLESLNKNKHFVPSAGADSETHC
# B2: Solute carrier organic anion transporter family member 2B1 (Homo sapiens) (protein)
# chain: MGPRIGPAGEVPQVPDKETKATMGTENTPGGKASPDPQDVRPSVFHNIKLFVLCHSLLQLAQLMISGYLKSSISTVEKRFGLSSQTSGLLASFNEVGNTALIVFVSYFGSRVHRPRMIGYGAILVALAGLLMTLPHFISEPYRYDNTSPEDMPQDFKASLCLPTTSAPASAPSNGNCSSYTETQHLSVVGIMFVAQTLLGVGGVPIQPFGISYIDDFAHNSNSPLYLGILFAVTMMGPGLAFGLGSLMLRLYVDINQMPEGGISLTIKDPRWVGAWWLGFLIAAGAVALAAIPYFFFPKEMPKEKRELQFRRKVLAVTDSPARKGKDSPSKQSPGESTKKQDGLVQIAPNLTVIQFIKVFPRVLLQTLRHPIFLLVVLSQVCLSSMAAGMATFLPKFLERQFSITASYANLLIGCLSFPSVIVGIVVGGVLVKRLHLGPVGCGALCLLGMLLCLFFSLPLFFIGCSSHQIAGITHQTSAHPGLELSPSCMEACSCPLDGFNPVCDPSTRVEYITPCHAGCSSWVVQDALDNSQVFYTNCSCVVEGNPVLAGSCDSTCSHLVVPFLLLVSLGSALACLTHTPSFMLILRGVKKEDKTLAVGIQFMFLRILAWMPSPVIHGSAIDTTCVHWALSCGRRAVCRYYNNDLLRNRFIGLQFFFKTGSVICFALVLAVLRQQDKEARTKESRSSPAVEQQLLVSGPGKKPEDSRV
# Key:
# [1] = biological target: T1, Solute carrier organic anion transporter family member 1B3 (Homo sapiens, UniProt Q9NPD5); experiment: (§1) TP_TRANSPORTER: uptake in Xenopus laevis oocytes; format: functional, cell-based, Oocyte; settings: oocyte
# T1 sequence (Q9NPD5 whole entry): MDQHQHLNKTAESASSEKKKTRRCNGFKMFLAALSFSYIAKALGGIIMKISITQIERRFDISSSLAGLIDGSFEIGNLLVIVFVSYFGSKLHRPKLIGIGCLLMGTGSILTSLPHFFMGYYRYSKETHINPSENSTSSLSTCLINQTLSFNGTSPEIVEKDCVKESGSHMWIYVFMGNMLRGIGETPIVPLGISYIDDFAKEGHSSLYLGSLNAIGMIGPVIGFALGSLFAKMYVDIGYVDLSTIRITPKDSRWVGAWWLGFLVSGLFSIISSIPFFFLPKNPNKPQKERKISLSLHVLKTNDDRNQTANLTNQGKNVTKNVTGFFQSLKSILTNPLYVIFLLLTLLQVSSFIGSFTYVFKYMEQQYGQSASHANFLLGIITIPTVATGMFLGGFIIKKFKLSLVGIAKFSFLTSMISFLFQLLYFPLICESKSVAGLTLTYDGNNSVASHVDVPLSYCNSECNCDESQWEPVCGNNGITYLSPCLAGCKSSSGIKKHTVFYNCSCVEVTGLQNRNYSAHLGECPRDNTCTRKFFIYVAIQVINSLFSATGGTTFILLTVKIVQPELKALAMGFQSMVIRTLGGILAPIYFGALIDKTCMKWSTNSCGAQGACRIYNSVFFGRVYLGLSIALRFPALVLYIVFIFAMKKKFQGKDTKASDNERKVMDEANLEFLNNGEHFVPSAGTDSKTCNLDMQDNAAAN
# [2] = biological target: T2, Solute carrier organic anion transporter family member 1A2 (Homo sapiens, UniProt P46721); experiment: as §1; format: functional, cell-based; settings: oocyte
# T2 sequence (P46721 whole entry): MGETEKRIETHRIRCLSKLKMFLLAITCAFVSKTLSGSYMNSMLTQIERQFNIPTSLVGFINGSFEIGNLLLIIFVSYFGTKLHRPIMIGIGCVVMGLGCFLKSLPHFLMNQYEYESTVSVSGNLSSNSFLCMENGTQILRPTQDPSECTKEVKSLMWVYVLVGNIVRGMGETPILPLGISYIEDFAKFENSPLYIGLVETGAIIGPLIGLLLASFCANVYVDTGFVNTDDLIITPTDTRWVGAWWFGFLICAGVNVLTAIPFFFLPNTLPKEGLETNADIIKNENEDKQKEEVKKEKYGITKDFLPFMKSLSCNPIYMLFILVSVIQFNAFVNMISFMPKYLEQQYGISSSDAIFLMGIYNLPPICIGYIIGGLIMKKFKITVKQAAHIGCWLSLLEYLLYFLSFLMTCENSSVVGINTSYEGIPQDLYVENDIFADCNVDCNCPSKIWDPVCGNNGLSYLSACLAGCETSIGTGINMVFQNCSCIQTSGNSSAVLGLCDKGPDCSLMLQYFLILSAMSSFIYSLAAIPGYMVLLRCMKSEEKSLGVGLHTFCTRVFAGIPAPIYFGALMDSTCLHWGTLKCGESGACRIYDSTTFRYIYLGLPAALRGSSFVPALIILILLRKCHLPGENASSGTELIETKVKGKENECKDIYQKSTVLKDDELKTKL
# [3] = biological target: T3, Solute carrier organic anion transporter family member 2B1 (Homo sapiens, UniProt O94956); experiment: as §1; format: functional, cell-based; settings: oocyte
# T3 sequence (O94956 whole entry): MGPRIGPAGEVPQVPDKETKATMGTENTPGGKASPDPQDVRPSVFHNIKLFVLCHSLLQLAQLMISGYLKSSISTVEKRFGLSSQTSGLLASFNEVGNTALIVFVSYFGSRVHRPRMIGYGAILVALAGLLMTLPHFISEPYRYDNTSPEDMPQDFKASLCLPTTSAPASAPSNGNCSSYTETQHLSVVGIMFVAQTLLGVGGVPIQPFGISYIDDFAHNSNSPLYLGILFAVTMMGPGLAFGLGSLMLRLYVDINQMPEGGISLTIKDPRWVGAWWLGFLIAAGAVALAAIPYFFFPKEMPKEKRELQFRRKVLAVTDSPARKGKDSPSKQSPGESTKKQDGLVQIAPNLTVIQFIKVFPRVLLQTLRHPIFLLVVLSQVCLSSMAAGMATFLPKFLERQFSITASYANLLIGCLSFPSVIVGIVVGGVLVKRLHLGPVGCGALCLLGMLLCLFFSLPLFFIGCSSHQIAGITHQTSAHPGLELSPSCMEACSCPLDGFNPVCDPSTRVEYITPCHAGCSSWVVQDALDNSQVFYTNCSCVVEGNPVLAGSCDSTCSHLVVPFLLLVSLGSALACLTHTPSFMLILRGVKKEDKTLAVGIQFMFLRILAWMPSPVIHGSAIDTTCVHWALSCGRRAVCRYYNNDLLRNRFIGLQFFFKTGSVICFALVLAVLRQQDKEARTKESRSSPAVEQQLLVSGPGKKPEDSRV
# [4] = biological target: T4, Solute carrier organic anion transporter family member 1B1 (Homo sapiens, UniProt Q9Y6L6); experiment: as §1; format: functional, cell-based; settings: oocyte
# T4 sequence (Q9Y6L6 whole entry): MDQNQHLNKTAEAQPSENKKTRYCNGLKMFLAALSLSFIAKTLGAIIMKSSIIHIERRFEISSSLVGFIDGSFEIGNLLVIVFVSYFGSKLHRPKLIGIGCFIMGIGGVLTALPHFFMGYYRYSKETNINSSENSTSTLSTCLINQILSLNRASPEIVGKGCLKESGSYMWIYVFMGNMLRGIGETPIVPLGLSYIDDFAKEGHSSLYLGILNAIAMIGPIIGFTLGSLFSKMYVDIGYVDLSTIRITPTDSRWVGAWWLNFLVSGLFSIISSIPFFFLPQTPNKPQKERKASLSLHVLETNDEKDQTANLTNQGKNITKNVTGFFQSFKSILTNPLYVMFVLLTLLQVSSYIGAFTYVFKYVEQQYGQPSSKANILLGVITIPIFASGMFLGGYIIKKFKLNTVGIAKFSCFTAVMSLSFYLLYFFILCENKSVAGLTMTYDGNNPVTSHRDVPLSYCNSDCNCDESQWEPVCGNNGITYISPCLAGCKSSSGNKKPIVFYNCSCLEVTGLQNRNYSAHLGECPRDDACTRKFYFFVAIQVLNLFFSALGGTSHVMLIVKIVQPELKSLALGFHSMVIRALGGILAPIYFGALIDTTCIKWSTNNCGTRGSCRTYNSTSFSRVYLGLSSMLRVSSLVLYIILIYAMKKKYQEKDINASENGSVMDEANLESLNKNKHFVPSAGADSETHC
# [5] = biological target: T5, Solute carrier organic anion transporter family member 1B3 (OATP1B3, SLCO1B3) (Homo sapiens, UniProt Q9NPD5); experiment: as §1; format: functional, cell-based, Oocyte; settings: Xenopus laevis oocytes expressing the transporter
# T5 sequence (Q9NPD5 whole entry): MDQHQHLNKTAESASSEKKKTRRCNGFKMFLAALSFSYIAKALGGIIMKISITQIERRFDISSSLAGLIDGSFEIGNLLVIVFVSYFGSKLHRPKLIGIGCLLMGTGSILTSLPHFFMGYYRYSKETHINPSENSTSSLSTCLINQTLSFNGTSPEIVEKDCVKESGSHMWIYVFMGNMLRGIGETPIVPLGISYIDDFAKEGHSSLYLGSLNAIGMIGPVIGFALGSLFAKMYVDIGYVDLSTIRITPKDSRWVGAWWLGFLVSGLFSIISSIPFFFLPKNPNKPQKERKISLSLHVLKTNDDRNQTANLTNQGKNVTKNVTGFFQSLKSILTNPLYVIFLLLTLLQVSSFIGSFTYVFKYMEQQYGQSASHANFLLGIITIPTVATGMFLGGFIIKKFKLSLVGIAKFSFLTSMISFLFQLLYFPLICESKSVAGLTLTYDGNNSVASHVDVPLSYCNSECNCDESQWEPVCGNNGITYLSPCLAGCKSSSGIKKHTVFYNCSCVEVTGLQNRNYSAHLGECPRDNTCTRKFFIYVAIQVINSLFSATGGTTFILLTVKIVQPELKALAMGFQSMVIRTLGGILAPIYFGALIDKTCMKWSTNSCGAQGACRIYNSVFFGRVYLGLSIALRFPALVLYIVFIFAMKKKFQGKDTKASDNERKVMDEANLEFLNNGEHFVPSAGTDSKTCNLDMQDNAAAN
# [6] = substrate: O=C1OC(c2ccc(O)c(S(=O)(=O)O)c2)(c2ccc(O)c(S(=O)(=O)O)c2)c2c(Br)c(Br)c(Br)c(Br)c21; experiment: as §1; format: functional, cell-based, Oocyte
Molecule,Activity [1],Activity [2],further results
C[C@@H]1O[C@@H](O[C@H]2C[C@@H](O)[C@]3(CO)[C@H]4[C@H](O)C[C@]5(C)[C@@H](C6=CC(=O)OC6)CC[C@]5(O)[C@@H]4CC[C@]3(O)C2)[C@H](O)[C@H](O)[C@H]1O [OUABAIN],substrate [+],substrate [+],
CCCCC[C@H](O)/C=C/[C@H]1[C@H](O)CC(=O)[C@@H]1C/C=C\CCCC(=O)O [DINOPROSTONE],,substrate [+],
C[C@]12CC[C@@H]3c4ccc(O)cc4CC[C@H]3[C@@H]1CC[C@@H]2O[C@@H]1O[C@H](C(=O)O)[C@@H](O)[C@H](O)[C@H]1O [ESTRADIOL 17B GLUCURONIDE],substrate [+],substrate [+],
C[C@]12CC[C@@H]3c4ccc(OS(=O)(=O)O)cc4CC[C@H]3[C@@H]1CCC2=O [ESTRONE SULFURIC ACID],substrate [+],,Activity [3]: substrate [+]
CC(C)C[C@@H]1NC(=O)[C@@H](C(C)C)NC(=O)[C@@H]2CCCN2C(=O)[C@@H](CC(=O)O)NC(=O)[C@@H](Cc2c[nH]c3ccccc23)NC1=O [BQ-123] (cyclo(L[dW][dD]P[dV])),substrate [+],substrate [+],Activity [4]: substrate [+]
C[C@]12CC[C@H](OS(=O)(=O)O)CC1=CC[C@@H]1[C@@H]2CC[C@]2(C)C(=O)CC[C@@H]12 [PRASTERONE SULFURIC ACID],substrate [+],,Activity [3]: substrate [+]
N[C@@H](Cc1cc(I)c(Oc2cc(I)c(O)c(I)c2)c(I)c1)C(=O)O [LEVOTHYROXINE],substrate [+],,
C[C@H](CCC(=O)NCC(=O)O)[C@H]1CC[C@H]2[C@@H]3[C@H](O)C[C@@H]4C[C@H](O)CC[C@]4(C)[C@H]3C[C@H](O)[C@]12C [GLYCOCHOLIC ACID],substrate [+],substrate [+],Activity [4]: substrate [+]
CCCCC/C=C\C\C=C/C=C/C=C/[C@@H](SC[C@@H](NC(=O)CC[C@H](N)C(=O)O)C(=O)NCC(=O)O)[C@@H](O)CCCC(=O)O [LEUKOTRIEN C4],substrate [+],,
O=C1OC(c2ccc(O)c(S(=O)(=O)O)c2)(c2ccc(O)c(S(=O)(=O)O)c2)c2c(Br)c(Br)c(Br)c(Br)c21 [SULFOBROMOPHTHALEIN SODIUM],,,Km [5]: 0.4 µM
CC1(C)SSC(C)(C)[C@@H](NC(=O)[C@@H](N)Cc2ccc(O)cc2)C(=O)NCC(=O)N[C@@H](Cc2ccccc2)C(=O)N[C@H]1C(=O)O,substrate [+],,Activity [4]: substrate [+]
N[C@@H](Cc1cc(I)c(Oc2ccc(O)c(I)c2)c(I)c1)C(=O)O [LIOTHYRONINE],substrate [+],,
CC(C)[C@H](NC(=O)[C@H](CCC(=O)O)NC(=O)[C@H](Cc1ccccc1)NC(=O)[C@@H](C)NC(=O)[C@@H](N)Cc1ccc(O)cc1)C(=O)N[C@H](C(=O)NCC(N)=O)C(C)C [DELTORPHIN II],substrate [+],,
B1,,,Km [6]: 0.3 µM
B2,,,Km [6]: 0.7 µM
